Data on 15 molecules can be found in patent US20110086898A1, “PYRAZOLOOXAZOLE COMPOUND” (Eisai R&D Management Co., Ltd., priority 2009, published 2011).

The subject of assay [1] is stress-related reduction in food intake. The note with it: Brain Research, 823: 221-225 (1999); cited from earlier work.
The target in assay [2] is T1, human CRFR1 (Homo sapiens, UniProt P34998).
T1 construct: The full-length CRFR1 gene was obtained by PCR by using human brain cDNA library; expressed in transfected cells
T1 sequence (P34998 24-415): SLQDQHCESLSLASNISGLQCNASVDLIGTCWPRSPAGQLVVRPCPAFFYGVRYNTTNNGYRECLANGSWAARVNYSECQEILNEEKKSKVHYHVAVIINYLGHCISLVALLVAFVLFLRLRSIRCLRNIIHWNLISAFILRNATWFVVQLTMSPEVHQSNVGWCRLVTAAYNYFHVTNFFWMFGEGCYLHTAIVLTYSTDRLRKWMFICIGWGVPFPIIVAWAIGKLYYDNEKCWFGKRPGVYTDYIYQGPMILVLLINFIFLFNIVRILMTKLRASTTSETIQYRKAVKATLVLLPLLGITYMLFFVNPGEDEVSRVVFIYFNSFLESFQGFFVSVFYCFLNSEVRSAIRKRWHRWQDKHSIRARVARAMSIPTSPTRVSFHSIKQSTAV
The experiment in a line: CRFR1 binding test (SPA competition with 125I-CRF). The note with it: membrane fraction of human CRFR1-expressing HEK293 cells, read-out: CRF1 receptor binding capacity IC50. Here is the method:
(1) Preparation of CRFR1-Expressing Cells
The membrane fraction of human CRFR1 high-expressing cells was used as the material for a CRFR1 binding experiment. The CRFR1-expressing cells were prepared in the following manner. The full-length CRFR1 gene was obtained by PCR by using human brain cDNA library (QuickClone™, Clontech). The obtained DNA fragment was inserted into a cloning vector and the base sequence was confirmed cDNA having the proper base sequence was linked to an expression vector (pcDNA3.1™, Invitrogen). The CRFR1 expression vector was genetically introduced into HEK293 cell, and the resistant cells which proliferated in culture medium containing G418 (1 mg/ml) were cloned by the limiting dilution method. Out of the cloned cells, cells having high binding capacity between the membrane fraction per unit protein and sauvagine were selected according to the following binding experiment, and the selected cells were used for the experiments.
(2) Preparation of Membrane Fraction
The cloned cells obtained in (1) were collected and suspended in ice-cooled membrane buffer (50 mM Tris-HCl, 5 mM MgCl2, 2 mM EGTA, 1 mM DTT, protease inhibitor cocktail (COMPLETE™, Roche Diagnostics) pH 7.3), and then the cells were disrupted with a Polytron (KINEMATICA) while cooling on ice (level 5, 10 seconds, 2-5 times, ice-cooling) and then centrifuged (2,000 rpm, 5 minutes, 4° C.), followed by collecting the supernatant. Membrane buffer was added to the precipitate, and the mixture was subjected to Polytron treatment (same conditions as mentioned above) and centrifuged (conditions as mentioned above), and the obtained supernatant was collected and combined with the previous supernatant. This was centrifuged (13,000 rpm (18,000×g), 30 minutes, 4° C.) to prepare cell membranes. The precipitated cell membranes were suspended in membrane buffer and disrupted with a Polytron (level 5, 10 seconds, 3-5 times, ice-cooling) to prepare a dispersed suspension. The protein assay was carried out.
The following method (1) or (2) was earned out for use as the cell membrane action.
(1) The above dispersed suspension was diluted with membrane buffer containing 0.1% BSA to a protein concentration of 200 μg/ml, for use as the cell membrane fraction.
(2) The above dispersed suspension was freeze-preserved, and if necessary, thawed, re-dispersed and diluted for use as the cell membrane fraction.
A binding competition experiment with CRF was conducted by the SPA (GE Healthcare) method using a 96-well plate. Five jug of the cell membrane fraction protein, 1 mg of SPA beads and […] ^125I-CRF (Perkin Elmer) were allowed to stand at mom temperature for at least two hours in the presence of a test compound, and the radioactivity of each well after centrifugation (1,200 rpm (260×g), five minutes, room temperature) was measured with a TopCount (registered trademark; Perkin Elmer).
(4) Calculation of Binding Capacity
The radioactivity with addition of a 4,000-fold excess of non-radioactive sauvagine as the nonspecific binding was subtracted from each value, and the resulting value was expressed as a percentage (% of control), with 100% as the radioactivity without addition of the test compound (control).

Assay [3] concerns male Balb/c mice. The experiment in a line: Light/dark box test in mice (anxiolytic effect). In kind it is in vivo. The settings on record: for anxiolytic effect in the light/dark box test in mice: dose 30 mg/kg, oral administration; for Effective Dose: minimum dose significantly prolonging time spent in light box vs vehicle, oral, one hour prior to test, Balb/c mice. Here is the method:
Evaluation of Anxiolytic Effect in Light/Dark Box Test in Mice
The light/dark box test in mice was carried out according to a modified method of Belzung C., Misslin R., and Vogel E. et al. (Reference; Behavioural effects of the benzodiazepine receptor partial agonist RO16-6028 in mice, Psychopharmacology, 97, 388-391, 1989). The test apparatus used in this test was a light/dark box including a covered black acrylic box (dark box; 15×10×20 cm), a white acrylic box with top opened (light box; 15×20×20 cm) and a black acrylic tunnel (10×7×4.5 cm) that connects the dark box and the light box and enables a mouse to freely move back and forth between the dark box and light box. In this test apparatus, however, a transparent acrylic plate was used for the front side (20×20 cm) and back side (20×20 cm) of the light box to allow observation of the behavior. After setting illumination so that the light intensity of the floor surface of the light box became 150 Lux, 5-week-old male Balb/c mice (purchased from Nihon Charles River) were introduced into the dark box and the test was started. In the test; the tested compound was suspended in 5% dimethyl sulfoxide, 5% Cremopor EL and 90% physiological saline and orally administered to the test animals one hour prior to the start of the test.
(2) Calculation of Anxiolytic Effect:
The time spent in the light box was measured as an index of the anxiolytic effect, with “spend in the light box” defined as the state in which all limbs of the mice were on the floor of the light box. […] The statistical significance between the vehicle-treated group and the test compound-treated groups was analyzed by one-way layout analysis of variance followed by Dunnett multiple comparison when multiple doses were set for the same test, and by the Mann-Whitney U test when only one dose was set.

The subject of assay [4] is ethanol withdrawal rats. The settings on record: Brain Research, 605:25-32 (1993); cited from earlier work.
For assay [5], the system named is intracerebral amyloid-β. The settings on record: PNAS 104: 10673-10678 (2007); cited from earlier work.
The subject of assay [6] is IBS patients. The settings on record: Gut 2004, 53:958-964; cited from earlier work.
The subject of assay [7] is ischemic and excitotoxic encephalopathy. The settings on record: Brain Research, 656: 405-408 (1994); cited from earlier work.

As for `CCN(c1nc(C)cc(N2CC=C(c3cccc(F)c3)CC2)n1)c1ccc(C(C)C)cc1SC` [CRA1000], the “stress-related reduction in food intake” value in assay [1] is listed as “inhibit”.
Consider `CCc1nn2c(-c3c(OC)cc(COC)cc3OC)coc2c1N(CC1CCOCC1)CC1CC1` [Example 3, N-(cyclopropylmethyl)-3-[2,6-dimethoxy-4-(methoxymethyl)phenyl]-6-ethyl-N-(tetrahydro-2H-pyran-4-ylmethyl)pyrazolo[5,1-b][1,3]oxazole-7-amine], for which the IC50 in assay [2] was determined as 0.1 µM.
As to `CCc1nn2c(-c3c(OC)cc(COC)cc3OC)c(C)oc2c1N(CC1CCOCC1)CC1CC1` [Example 5, N-(cyclopropylmethyl)-3-[2,6-dimethoxy-4-(methoxymethyl)phenyl]-6-ethyl-2-methyl-N-(tetrahydro-2H-pyran-4-ylmethyl)pyrazolo[5,1-b][1,3]oxazole-7-amine], in assay [2], the IC50 stood at 0.032 µM. Further, in assay [3], the “anxiolytic effect in the light/dark box test in mice” value is reported as “statistically significant effects” and the “Effective Dose” value was 30 mg/kg.
Turning to `CCc1nn2c(-c3c(OC)cc(COC)cc3OC)c(C)oc2c1N(CC(C)C)CC1CCOCC1` [Example 6, 3-[2,6-dimethoxy-4-(methoxymethyl)phenyl]-6-ethyl-N-isobutyl-2-methyl-N-(tetrahydro-2H-pyran-4-ylmethyl)pyrazolo[5,1-b][1,3]oxazole-7-amine], in assay [2], the half-maximal inhibitory concentration (IC50) was determined as 0.043 µM.
The same measure, in the same setting: the value for `CCc1nn2c(-c3c(OC)cc(COC)cc3OC)c(C)oc2c1N(CC1CC1)CC1CC1` [Example 7, N,N-bis(cyclopropylmethyl)-3-[2,6-dimethoxy-4-(methoxymethyl)phenyl]-6-ethyl-2-methylpyrazolo[5,1-b][1,3]oxazole-7-amine] was 0.021 µM.
Regarding `CCc1nn2c(-c3c(OC)cc(COC)cc3OC)c(C)oc2c1N(CC1CC1)CC1CCOC1` (stereo not drawn) [Example 8, N-(cyclopropylmethyl)-3-[2,6-dimethoxy-4-(methoxymethyl)phenyl]-6-ethyl-2-methyl-N-(tetrahydrofuran-3-ylmethyl)pyrazolo[5,1-b][1,3]oxazole-7-amine], the IC50 in assay [2] was determined as 0.077 µM.
Still for that read-out and setting: the figure for `CCOCc1cc(OC)c(-c2c(C)oc3c(N(CC4CC4)CC4CCOC4)c(CC)nn23)c(OC)c1` (stereo not drawn) [Example 9, N-(cyclopropylmethyl)-3-[4-(ethoxymethyl)-2,6-dimethoxyphenyl]-6-ethyl-2-methyl-N-(tetrahydrofuran-3-ylmethyl)pyrazolo[5,1-b][1,3]oxazole-7-amine] is 0.044 µM.
On to `COCc1cc(OC)c(-c2c(C)oc3c(N(CC4CCOCC4)CC4CC4)c(C)nn23)c(OC)c1` [Example 10, N-(cyclopropylmethyl)-3-[2,6-dimethoxy-4-(methoxymethyl)phenyl]-2,6-dimethyl-N-(tetrahydro-2H-pyran-4-ylmethyl)pyrazolo[5,1-b][1,3]oxazole-7-amine], for which, in assay [2], the half-inhibitory concentration (IC50) came out at 0.071 µM. In assay [3], the “anxiolytic effect in the light/dark box test in mice” value is given as “statistically significant effects” and the “Effective Dose” value is 30 mg/kg.
Consider `COCc1cc(OC)c(-c2c(C)oc3c(N(CC(C)C)CC4CCOCC4)c(C)nn23)c(OC)c1` [Example 11, 3-[2,6-dimethoxy-4-(methoxymethyl)phenyl]-N-isobutyl-2,6-dimethyl-N-(tetrahydro-2H-pyran-4-ylmethyl)pyrazolo[5,1-b][1,3]oxazole-7-amine], for which, in assay [2], the half-maximal inhibitory concentration (IC50) came to 0.05 µM.
Take `COCc1cc(OC)c(-c2c(C)oc3c(N(CC(C)C)CC4CCOC4)c(C)nn23)c(OC)c1` (stereo not drawn) [Example 12, 3-[2,6-dimethoxy-4-(methoxymethyl)phenyl]-N-isobutyl-2,6-dimethyl-N-(tetrahydrofuran-3-ylmethyl)pyrazolo[5,1-b][1,3]oxazole-7-amine]: in assay [2], the IC50 was 0.079 µM.
On the same count and under the same terms, the figure for `CCOCc1cc(OC)c(-c2c(C)oc3c(N(CC4CCOCC4)CC4CC4)c(C)nn23)c(OC)c1` [Example 13, N-(cyclopropylmethyl)-3-[4-(ethoxymethyl)-2,6-dimethoxyphenyl]-2,6-dimethyl-N-(tetrahydro-2H-pyran-4-ylmethyl)pyrazolo[5,1-b][1,3]oxazole-7-amine] is 0.061 µM; for `CCc1nn2c(-c3c(OC)cc(COC)cc3OC)c(C)oc2c1N(CC1CC1)CC1COCOC1` [Example 14, N-(cyclopropylmethyl)-3-[2,6-dimethoxy-4-(methoxymethyl)phenyl]-N-(1,3-dioxan-5-ylmethyl)-6-ethyl-2-methylpyrazolo[5,1-b][1,3]oxazole-7-amine] it is 0.121 µM.
The same measure, in the same setting: the value for `CCCCN(c1c(CC)nn2c(-c3c(OC)cc(COC)cc3OC)c(C)oc12)C1CCOCC1` [Example 15, N-butyl-3-[2,6-dimethoxy-4-(methoxymethyl)phenyl]-6-ethyl-2-methyl-N-(tetrahydro-2H-pyran-4-yl)pyrazolo[5,1-b][1,3]oxazole-7-amine] was 0.098 µM.
The same measure, in the same setting: the value for `CCc1nn2c(-c3c(OC)cc(COC)cc3OC)c(C)oc2c1N(CC1CC1)C1CCOCC1` [Example 16, N-(cyclopropylmethyl)-3-[2,6-dimethoxy-4-(methoxymethyl)phenyl]-6-ethyl-2-methyl-N-(tetrahydro-2H-pyran-4-yl)pyrazolo[5,1-b][1,3]oxazole-7-amine] was 0.102 µM.
For the molecule α-helical CRF (9-41), the “anxiety behavior in ethanol withdrawal rats” value in assay [4] is listed as “inhibits”. Further, in assay [5], the “stress-related increase in intracerebral amyloid-β” value is “suppresses”. In addition, in assay [6], the “abdominal pain and anxiety” value is listed as “reduces”; the colon intestinal hyperkinesis result is listed as “inhibits”. Moreover, the “ischemic and excitotoxic encephalopathy” value in assay [7] is “inhibits”. Moreover, the “stress-related reduction in food intake” value in assay [1] is “inhibit”.

In general, IC50 refers to the midpoint of a concentration-inhibition curve.
